# According to patent US20200384018A1, “OZONE NANOBUBBLE ANTICANCER AGENT” (OPT CREATION INC., priority 2017, published 2020):
# Structures can show the parent of a compound that is named as a salt.
# Tested on: MIAPaCa-2 cells
# Assay: Combination of NAnO3 and existing anticancer agents, sequential administration (neutral red)
# Assay type: cell-based, human
# Conditions: exposed only to the anticancer agent (doxorubicin 0.1, gemcitabine 0.04, cisplatin 4 μg/mL); DMEM medium = 100%
# Method: A cell suspension was prepared such that MIAPaCa-2 viable cell count became 5×10^4 cells/mL. The cell suspension (1 mL) was seeded in each of wells of a 12 well plate, allowed to stand in a CO2 incubator set at 37° C. and 5% CO2 and cultured for 18 hours or more to allow the cells to adhere to the bottom of the plate. After the completion of culture, the medium was removed from the plate and the following test-substance solutions were added.
# Test-substance solutions 1 to 6 were prepared in the same manner as in Section 2.1 and used. Test-substance solutions 7 to 9 were prepared by adding each anticancer agent/DMEM medium (0.9 mL) and, in several minutes later, adding 0.1 mL of NAnO3. The same operation was also repeated after 48 hours and 72 hours.
# After the completion of culture, the medium was removed and washing with PBS (−) was made. To each of the wells of the plate, a 0.005% neutral red (NR) (Kanto Chemical Co., Inc., Lot No. 806W2294) D-MEM solution (1 mL) was added and the plate was allowed to stand in a CO2 incubator for 3 hours. After 3 hours, the NR solution was removed and washing was made with PBS (−). To each plate, 1 mL of a fixation/extraction liquid (ethanol 50% (v/v), glacial acetic acid 1% (v/v) aqueous solution) was added and shaking was made for 10 minutes. Thereafter, the value of the absorbance was measured by using a microplate reader (EL×800, BIO-TEC INSTRUMENTS, INC., wavelength: 540 nm).
# Provided that the absorbance of DMEM medium (test-substance solution 1) was regarded as 100%, the cell survival rate (%) of each test group was obtained (FIG. 4).
row,SMILES,cell survival rate
1,"COc1cccc2c1C(=O)c1c(O)c3c(c(O)c1C2=O)C[C@@](O)(C(=O)CO)C[C@@H]3O[C@H]1C[C@H](N)[C@H](O)[C@H](C)O1 [doxorubicin, doxorubicin hydrochloride]",51.1%
2,N.N.[Cl][Pt][Cl] [cisplatin],47.5%
3,"Nc1ccn([C@@H]2O[C@H](CO)[C@@H](O)C2(F)F)c(=O)n1 [gemcitabine, gemcitabine hydrochloride]",44.8%
